This note sets out measurements from ChEMBL document CHEMBL1126487, “Induction of reversible protein-linked DNA breaks in human osteogenic sarcoma cells by novel cytocidal colchicine derivatives which inhibit DNA topoisomerase II in vitro: Absence of cross-resistance in a colchicine-resistant sub-clone” (Bioorg Med Chem Lett, 1993).

The subject of one data set is HOS. Put plainly: Effective concentration required to inhibit growth of sub clone Hos colR cells. Format: functional, cell-based. The conditions noted are these: Homo sapiens.
Data set [1] is described as follows: Toxicity against human Osteogenic sarcoma (Hos)cells. As to conditions: read-out: LD50 (the source's name).

Each structure is given as a SMILES string. pEC50: −log10 of the molar value.

On to `O=C(N[C@H]1CCc2cc(O)c(O)c(O)c2-c2ccc(=O)c(O)cc21)c1cc(O)c(O)c(O)c1`, for which the pEC50 in the data set with HOS was 4.55. For the same compound, the CC50 in data set [1] came out at 18 µM.
The like results for `O=C(N[C@H]1CCc2cc(O)c(O)c(O)c2-c2ccc(=O)c(O)cc21)C(F)(F)F` were, in that order, 4.59 and 14 µM.
